Experiments:
Type in all cases: in vivo
[1] = tested on: barnyardgrass (Echinochloa crusgalli); assay: Test B flooded paddy test, visual plant response rating 0-100; settings: 250 g ai/ha, Flood, applied to paddy water, evaluated after 13 days
Method: (§1) Plant species in the flooded paddy test selected from barnyardgrass (Echinochloa crusgalli), ducksalad (Heteranthera limosa), rice (Oryza sativa), and sedge, umbrella (small-flower umbrella sedge, Cyperus difformis) were grown to the 2-leaf stage for testing. At time of treatment, test pots were flooded to 3 cm above the soil surface, treated by application of test compounds directly to the paddy water, and then maintained at that water depth for the duration of the test. Treated plants and controls were maintained in a greenhouse for 13 days, after which time all species were compared to controls and visually evaluated. […] A dash (-) response means no test result.

rice (Oryza sativa) = assay: as above; settings: 250 g ai/ha, Flood, applied to paddy water, evaluated after 13 days
Method: as §1

[2] = tested on: ducksalad (Heteranthera limosa); assay: as above; settings: 250 g ai/ha, Flood, applied to paddy water, evaluated after 13 days
Method: as §1

[3] = tested on: sedge, umbrella (small-flower umbrella sedge, Cyperus difformis); assay: as above; settings: 250 g ai/ha, Flood, applied to paddy water, evaluated after 13 days
Method: as §1

corn (Zea mays) [4] = assay: Test A postemergence application, visual injury rating 0-100
Description: (§2) Seeds of plant species selected from barnyardgrass (Echinochloa crus-galli), blackgrass (Alopecurus myosuroides), corn (Zea mays), foxtail, giant (giant foxtail, Setaria faberi), green foxtail (Setaria viridis), goosegrass (Eleusine indica), kochia (Bassia scoparia), oat, wild (wild oat, Avena fatua), palmer (palmer amaranth, palmer pigweed, Amaranthus palmeri), ragweed (common ragweed, Ambrosia artemisiifolia), ryegrass, Italian (italian ryegrass, Lolium multiflorum), soybean (Glycine max) and wheat (Triticum aestivum) were planted into a blend of loam soil and sand and treated preemergence with a directed soil spray using test chemicals formulated in a non-phytotoxic solvent mixture which included a surfactant.
(§3) At the same time, plants selected from these crops and weed species and also galium (catchweed bedstraw, Galium aparine) and horseweed (Erigeron canadensis) were planted in pots containing the same blend of loam soil and sand and treated with postemergence applications of test chemicals formulated in the same manner. Plants ranged in height from 2 to 10 cm and were in the one- to two-leaf stage for the postemergence treatment. Treated plants and untreated controls were maintained in a greenhouse for 10 days, after which time all treated plants were compared to untreated controls and visually evaluated for injury. Plant response ratings, summarized in Table A, are based on a 0 to 100 scale where 0 is no effect and 100 is complete control. A dash (-) response means no test result.

[5] = tested on: palmer (palmer amaranth, palmer pigweed, Amaranthus palmeri); assay: as above
Description: as §2, §3

[6] = tested on: ryegrass, Italian (italian ryegrass, Lolium multiflorum); assay: as above
Description: as §2, §3

[7] = tested on: barnyardgrass (Echinochloa crus-galli); assay: as above
Description: as §2, §3

[8] = tested on: oat, wild (wild oat, Avena fatua); assay: as above
Description: as §2, §3

[9] = tested on: blackgrass (Alopecurus myosuroides); assay: as above
Description: as §2, §3

[10] = tested on: green foxtail (Setaria viridis); assay: as above
Description: as §2, §3

kochia (Bassia scoparia) [11] = assay: as above
Description: as §2, §3

[12] = tested on: wheat (Triticum aestivum); assay: as above
Description: as §2, §3

[13] = tested on: ragweed (common ragweed, Ambrosia artemisiifolia); assay: as above
Description: as §2, §3

soybean (Glycine max) [14] = assay: as above
Description: as §2, §3

corn (Zea mays) [15] = assay: Test A preemergence soil spray, visual injury rating 0-100; settings: 10 days
Description: as §2, §3

[16] = tested on: palmer (palmer amaranth, palmer pigweed, Amaranthus palmeri); assay: as above; settings: 16 g ai/ha, 0 to 100 scale, 10 days
Description: as §2, §3

[17] = tested on: ryegrass, Italian (italian ryegrass, Lolium multiflorum); assay: as above; settings: 10 days
Description: as §2, §3

[18] = tested on: barnyardgrass (Echinochloa crus-galli); assay: as above; settings: 10 days
Description: as §2, §3

[19] = tested on: oat, wild (wild oat, Avena fatua); assay: as above; settings: 10 days
Description: as §2, §3

[20] = tested on: blackgrass (Alopecurus myosuroides); assay: as above; settings: 10 days
Description: as §2, §3

[21] = tested on: green foxtail (Setaria viridis); assay: as above; settings: 10 days
Description: as §2, §3

kochia (Bassia scoparia) [22] = assay: as above; settings: 10 days
Description: as §2, §3

[23] = tested on: wheat (Triticum aestivum); assay: as above; settings: 10 days
Description: as §2, §3

[24] = tested on: ragweed (common ragweed, Ambrosia artemisiifolia); assay: as above; settings: 10 days
Description: as §2, §3

soybean (Glycine max) [25] = assay: as above; settings: 10 days
Description: as §2, §3

[26] = 62 g ai/ha, postemergence, 10 days, 0 = no effect, 100 = complete control
[27] = Postemergence, 16 g ai/ha, greenhouse 10 days, 0 no effect, 100 complete control
[28] = 62 g ai/ha, 0 = no effect, 100 = complete control

CCOC(=O)C1=CCC(NC(=O)C2(C)CN(c3cc(F)cc(F)c3)C(=O)O2)C1 (centres unmarked) [Compound 111]
Plant response rating, Barnyardgrass (0 to 100 scale, 0 is no effect and 100 is complete control) [1]: 0
Plant response rating, Rice (0 to 100 scale, 0 is no effect and 100 is complete control) (rice (Oryza sativa)): 0
Plant response rating, Ducksalad (0 to 100 scale, 0 is no effect and 100 is complete control) [2]: 0
Plant response rating, Sedge, Umbrella (0 to 100 scale, 0 is no effect and 100 is complete control) [3]: 0
Corn plant response rating (0-100) (corn (Zea mays) [4]; [26]): 0
Corn plant response rating (0 to 100 scale) (corn (Zea mays) [4]; [27]): 0
Pigweed, Palmer plant response rating (0-100) [5, 26]: 10
Pigweed, Palmer plant response rating (0 to 100 scale) [5, 27]: 0
Ryegrass, Italian plant response rating (0-100) [6, 26]: 0
Ryegrass, Italian plant response rating (0 to 100 scale) [6, 27]: 0
Barnyardgrass plant response rating (0-100) [7, 26]: 20
Barnyardgrass plant response rating (0 to 100 scale) [7, 27]: 0
Oat, Wild plant response rating (0-100) [8, 26]: 0
Oat, Wild plant response rating (0 to 100 scale) [8, 27]: 0
Blackgrass plant response rating (0-100) [9, 26]: 0
Blackgrass plant response rating (0 to 100 scale) [9, 27]: 0
Foxtail, Green plant response rating (0-100) [10, 26]: 0
Foxtail, Green plant response rating (0 to 100 scale) [10, 27]: 0
Kochia plant response rating (0-100) (kochia (Bassia scoparia) [11]; [26]): 0
Kochia plant response rating (0 to 100 scale) (kochia (Bassia scoparia) [11]; [27]): 0
Wheat plant response rating (0-100) [12, 26]: 20
Wheat plant response rating (0 to 100 scale) [12, 27]: 0
Ragweed plant response rating (0-100) [13, 26]: 0
Ragweed plant response rating (0 to 100 scale) [13, 27]: 0
Soybean plant response rating (0-100) (soybean (Glycine max) [14]; [26]): 0
Soybean plant response rating (0 to 100 scale) (soybean (Glycine max) [14]; [27]): 0
Corn plant response rating (corn (Zea mays) [15]; 16 g ai/ha, 0 to 100 scale): 0
Corn plant response rating (0-100) (corn (Zea mays) [15]; [28]): 0
Pigweed, Palmer plant response rating [16]: 0
Ryegrass, Italian plant response rating ([17]; 16 g ai/ha, 0 to 100 scale): 0
Ryegrass, Italian plant response rating (0-100) [17, 28]: 0
Barnyardgrass plant response rating ([18]; 16 g ai/ha, 0 to 100 scale): 0
Barnyardgrass plant response rating (0-100) [18, 28]: 0
Oat, Wild plant response rating ([19]; 16 g ai/ha, 0 to 100 scale): 0
Oat, Wild plant response rating (0-100) [19, 28]: 0
Blackgrass plant response rating ([20]; 16 g ai/ha, 0 to 100 scale): 0
Blackgrass plant response rating (0-100) [20, 28]: 0
Foxtail, Green plant response rating ([21]; 16 g ai/ha, 0 to 100 scale): 0
Foxtail, Green plant response rating (0-100) [21, 28]: 0
Kochia plant response rating (kochia (Bassia scoparia) [22]; 16 g ai/ha, 0 to 100 scale): 0
Kochia plant response rating (0-100) (kochia (Bassia scoparia) [22]; [28]): 0
Wheat plant response rating ([23]; 16 g ai/ha, 0 to 100 scale): 0
Wheat plant response rating (0-100) [23, 28]: 0
Ragweed plant response rating ([24]; 16 g ai/ha, 0 to 100 scale): 0
Ragweed plant response rating (0-100) [24, 28]: 0
Soybean plant response rating (soybean (Glycine max) [25]; 16 g ai/ha, 0 to 100 scale): 100
Soybean plant response rating (0-100) (soybean (Glycine max) [25]; [28]): 0

— patent publication US20260285850A1, “SUBSTITUTED OXAZOLIDINONES AND IMIDAZOLINONES AS HERBICIDES” (FMC CORPORATION, priority 2023, published 2026)
